Tests used:
[1] = biological target: T315I mutation of Abl (Bcr-Abl) (Homo sapiens, UniProt P00519, T315I); settings: cited from earlier work
[2] = system: Human myeloid leukemia K-562 cell line; settings: K562 s.c. in SCID mice, Imatinib 100 mg/kg per os, days 7-15; for Time to reach 1 g: Compound 1 15 mg/kg intraperitoneally twice a day; for T-C: delay of treated vs control tumors to reach 1 g, Compound 1 15 mg/kg i.p.
Description: SCID female mice, from Harlan (Italy), were maintained in cages with paper filter cover, food and bedding sterilized and water acidified.
For in vivo experiments 10^7 K562 cells were implanted subcutaneously in SCID mice.
Tumor growth and body weight were measured every 3 days. Tumor growth was assessed by caliper. […] This delay (T-C value) was defined as the difference of time (in days) required for the treatment group (T) and the control group(C) tumors to reach a predetermined size (1 g).
Toxicity was evaluated on the basis of body weight reduction.

Compound | activity against the T315I mutation [1] | Time to reach 1 g [2] | T-C [2]
Cc1ccc(NC(=O)c2ccc(CN3CC[C@H](N(C)C)C3)c(C(F)(F)F)c2)cc1Nc1nccc(-c2cncnc2)n1 [Inno-406] | inactive |  | 
Cc1ccc(NC(=O)c2ccc(CN3CCN(C)CC3)cc2)cc1Nc1nccc(-c2cccnc2)n1 [Imatinib] |  | 25.1 days | 9.3 days
CO[C@@H](C(=O)N1Cc2[nH]nc(NC(=O)c3ccc(N4CCN(C)CC4)cc3)c2C1)c1ccccc1 [Compound 1, N-[5-(2-Methoxy-2-phenyl-acetyl)-1,4,5,6-tetrahydro-pyrrolo[3,4-c]pyrazol-3-yl]-4-(4-methyl-piperazin-1yl)-benzamide] |  | 27.3 days | 11.5 days
